Data from patent US5654451A, “Amino acids and peptides having modified C-terminals and modified N-terminals” (Magainin Pharmaceuticals Inc., priority 1995, dated 1997).
Values after ≈ are worked out from the molar mass of the structure shown.

Columns and labels:
Experiment in all cases: Antimicrobial assay (MIC, microtiter broth dilution)
Assay type in all cases: cell-based
[1] = test system: E. floccosum; conditions: strain 52062
[2] = test system: C. albicans; conditions: for MIC C. albicans: Table I; for MIC C. albicans 14053: strain 14053
Experimental: (§1) The procedure for the antimicrobial assay is based upon the guidelines of the National Committee for Clinical Laboratory Standards, Document M7-T2, Volume 8, No. 8, 1988.
(§2) 1-5×10^5 CFUs/ml of either S. aureus ATCC 25923, E. coli ATCC 25922, P. aeruginosa ATCC 27853, or C. albicans were added to the wells in full strength Mueller Hinton broth (BBL 11443) from a mid-log culture. The inoculum is standardized spectrophotometrically at 600 nm and is verified by colony counts. The plates are incubated for 16-20 hours at 37° C., and the minimal inhibitory concentrations (MIC) for the compounds are determined. Minimal inhibitory concentration is defined as the lowest concentration of amino acid or peptide which produces a clear well in the microtiter plate.

[3] = test system: P. aeruginosa; conditions: for MIC P aeruginosa: Table I, P. aeruginosa ATCC 27853; for MIC P. aeruginosa 27853: strain 27853 (Tables II-V)
Experimental: as §1, §2

[4] = test system: S. aureus; conditions: for MIC S. aureus: Table I, S. aureus ATCC 25923; for MIC S. aureus 29213: strain 29213 (Tables II-V)
Experimental: as §1, §2

[5] = test system: E. coli; conditions: for MIC E. coli: Table I, E. coli ATCC 25922; for MIC E. coli 25922: strain 25922 (Tables II-V)
Experimental: as §1, §2

[6] = test system: S. marcescens; conditions: for MIC S. marcescens 18963: strain 18963; for MIC S. marcescens 23420: strain 23420
[7] = test system: M. canis; conditions: strain 11621
[8] = test system: C. tropicalis; conditions: for MIC C. tropicalis 13803: strain 13803; for MIC C. tropicalis 28707: strain 28707
[9] = test system: E. faecium; conditions: strain 26143
[10] = test system: T. mentagrophytes; conditions: strain 18748
[11] = test system: C. parapsilosis; conditions: for MIC C. parapsilosis 10232: strain 10232; for MIC C. parapsilosis 22109: strain 22109
[12] = test system: C. kefyr; conditions: strain 28838
[13] = test system: E. faecalis; conditions: for MIC E. faecalis 23296: strain 23296; for MIC E. faecalis 29212: strain 29212
[14] = test system: T. rubrum; conditions: strain 36262
[15] = test system: P. mirabilis; conditions: for MIC P. mirabilis 23147: strain 23147; for MIC P. mirabilis 24231: strain 24231
[16] = test system: P. gingivalis
[17] = test system: L. fermentum; conditions: strain 23271
[18] = test system: C. difficile; conditions: for MIC C. difficile P324: strain P324; for MIC C. difficile TTU614: strain TTU614
[19] = test system: B. fragilis; conditions: strain 25285
[20] = test system: S. epidermidis

SMILES: NC(N)=NC(Cc1ccccc1)C(=O)NCCCCCCCCCCCCNC(=O)C(Cc1ccccc1)N=C(N)N (stereo not drawn) [Compound 3, 1,12-[bis-N-α-amidino-phenylalanyl]diaminododecane]
- MIC E. floccosum 52062 [1]: 16 µg/mL (≈ 27.6 µM)
- MIC C. albicans [2]: 4 µg/mL (≈ 6.91 µM)
- MIC C. albicans 14053 [2]: 4 µg/mL (≈ 6.91 µM)
- MIC P aeruginosa [3]: 8 µg/mL (≈ 13.8 µM)
- MIC P. aeruginosa 27853 [3]: 4,32 μg/ml
- MIC S. aureus [4]: 1 µg/mL (≈ 1.73 µM)
- MIC S. aureus 29213 [4]: 1 µg/mL (≈ 1.73 µM)
- MIC E. coli [5]: 4 µg/mL (≈ 6.91 µM)
- MIC E. coli 25922 [5]: 4 µg/mL (≈ 6.91 µM)
- MIC S. marcescens 18963 [6]: 64 µg/mL (≈ 111 µM)
- MIC S. marcescens 23420 [6]: > 256 µg/mL
- MIC M. canis 11621 [7]: 32 µg/mL (≈ 55.3 µM)
- MIC C. tropicalis 13803 [8]: 2 µg/mL (≈ 3.46 µM)
- MIC C. tropicalis 28707 [8]: 0.5 µg/mL (≈ 0.864 µM)
- MIC E. faecium 26143 [9]: 2 µg/mL (≈ 3.46 µM)
- MIC T. mentagrophytes 18748 [10]: 16 µg/mL (≈ 27.6 µM)
- MIC C. parapsilosis 10232 [11]: 2 µg/mL (≈ 3.46 µM)
- MIC C. parapsilosis 22109 [11]: 2 µg/mL (≈ 3.46 µM)
- MIC C. kefyr 28838 [12]: 2 µg/mL (≈ 3.46 µM)
- MIC E. faecalis 19052 ([13]; strain 19052): 1,2 μg/ml
- MIC E. faecalis 19290 ([13]; strain 19290): 1,2 μg/ml
- MIC E. faecalis 23296 [13]: 1,2 μg/ml
- MIC E. faecalis 29212 [13]: 1,2 μg/ml
- MIC T. rubrum 36262 [14]: 16 µg/mL (≈ 27.6 µM)
- MIC P. mirabilis 23147 [15]: > 256 µg/mL
- MIC P. mirabilis 24231 [15]: > 256 µg/mL
- MIC P. gingivalis 9-14K-1 ([16]; strain 9-14K-1): 4 µg/mL (≈ 6.91 µM)
- MIC P. gingivalis 381 ([16]; strain 381): 4 µg/mL (≈ 6.91 µM)
- MIC P. gingivalis A7A1-28 ([16]; strain A7A1-28): 4 µg/mL (≈ 6.91 µM)
- MIC P. gingivalis FAY-19M-1 ([16]; strain FAY-19M-1): 4 µg/mL (≈ 6.91 µM)
- MIC P. gingivalis W50 ([16]; strain W50): 4 µg/mL (≈ 6.91 µM)

SMILES: N=C(N)NC(Cc1ccc(O)cc1)C(=O)NCCCCCCCCCCCCNC(=O)C(Cc1ccc(O)cc1)NC(=N)N (stereo not drawn) [Compound 4, 1,12-[bis-N-α-amidino-tyrosyl)diaminododecane]
- MIC L. fermentum 23271 [17]: 4,8 μg/ml
- MIC C. albicans [2]: > 256 µg/mL
- MIC C. albicans 14053 [2]: 128,256 μg/ml
- MIC P aeruginosa [3]: 128 µg/mL (≈ 210 µM)
- MIC P. aeruginosa 27853 [3]: 128 µg/mL (≈ 210 µM)
- MIC S. aureus [4]: 2 µg/mL (≈ 3.27 µM)
- MIC S. aureus 29213 [4]: 2,4 μg/ml
- MIC E. coli [5]: 128 µg/mL (≈ 210 µM)
- MIC E. coli 25922 [5]: 64,256 μg/ml
- MIC C. difficile P324 [18]: 4 µg/mL (≈ 6.55 µM)
- MIC C. difficile TTU614 [18]: 32 µg/mL (≈ 52.4 µM)
- MIC B. fragilis 25285 [19]: 256 µg/mL (≈ 419 µM)

SMILES: NC(N)=NC(Cc1ccccc1)C(=O)NCCCCCCCNC(=O)C(Cc1ccccc1)N=C(N)N (stereo not drawn) [Compound 6, 1,7-[bis-N-α-amidino-phenylalanyl]diaminoheptane]
- MIC L. fermentum 23271 [17]: 64 µg/mL (≈ 126 µM)
- MIC C. albicans [2]: 256 µg/mL (≈ 503 µM)
- MIC C. albicans 14053 [2]: 256 µg/mL (≈ 503 µM)
- MIC P aeruginosa [3]: > 256 µg/mL
- MIC P. aeruginosa 27853 [3]: > 256 µg/mL
- MIC S. aureus [4]: 64 µg/mL (≈ 126 µM)
- MIC S. aureus 29213 [4]: 64,128 μg/ml
- MIC E. coli [5]: > 256 µg/mL
- MIC E. coli 25922 [5]: > 256 µg/mL
- MIC C. difficile P324 [18]: 128 µg/mL (≈ 252 µM)
- MIC B. fragilis 25285 [19]: 256 µg/mL (≈ 503 µM)

SMILES: N=C(N)NC(Cc1ccc(F)cc1)C(=O)NCCCCCCCCCCCCNC(=O)C(Cc1ccc(F)cc1)NC(=N)N (stereo not drawn) [Compound 11, 1,12-[bis-N-α-amidino-p-fluoro-phenylalanyl]diaminododecane]
- MIC L. fermentum 23271 [17]: 1 µg/mL (≈ 1.63 µM)
- MIC E. floccosum 52062 [1]: 4 µg/mL (≈ 6.51 µM)
- MIC C. albicans [2]: 16 µg/mL (≈ 26 µM)
- MIC C. albicans 14053 [2]: 2,64 μg/ml
- MIC P aeruginosa [3]: 8 µg/mL (≈ 13 µM)
- MIC P. aeruginosa 1133 ([3]; strain 1133): 32 µg/mL (≈ 52.1 µM)
- MIC P. aeruginosa 27853 [3]: 8,16 μg/ml
- MIC P. aeruginosa El Salvador ([3]; strain El Salvador): 128 µg/mL (≈ 208 µM)
- MIC S. aureus [4]: 2 µg/mL (≈ 3.25 µM)
- MIC S. aureus 1093 ([4]; strain 1093): 2 µg/mL (≈ 3.25 µM)
- MIC S. aureus 1096 ([4]; strain 1096): 2 µg/mL (≈ 3.25 µM)
- MIC E. coli [5]: 4 µg/mL (≈ 6.51 µM)
- MIC E. coli 25922 [5]: 2,16 μg/ml
- MIC S. marcescens 18963 [6]: 16 µg/mL (≈ 26 µM)
- MIC S. marcescens 23420 [6]: > 256 µg/mL
- MIC M. canis 11621 [7]: 4 µg/mL (≈ 6.51 µM)
- MIC C. tropicalis 13803 [8]: 2 µg/mL (≈ 3.25 µM)
- MIC C. tropicalis 28707 [8]: 0.5 µg/mL (≈ 0.813 µM)
- MIC E. faecium 26143 [9]: 1 µg/mL (≈ 1.63 µM)
- MIC S. epidermidis 1050 ([20]; strain 1050): 1 µg/mL (≈ 1.63 µM)
- MIC S. epidermidis 1090 ([20]; strain 1090): 2 µg/mL (≈ 3.25 µM)
- MIC T. mentagrophytes 18748 [10]: 4 µg/mL (≈ 6.51 µM)
- MIC C. parapsilosis 10232 [11]: 1,2 μg/ml
- MIC C. parapsilosis 22109 [11]: 1 µg/mL (≈ 1.63 µM)
- MIC C. kefyr 28838 [12]: 1 µg/mL (≈ 1.63 µM)
- MIC C. difficile P324 [18]: 2 µg/mL (≈ 3.25 µM)
- MIC C. difficile TTU614 [18]: 4 µg/mL (≈ 6.51 µM)
- MIC E. faecalis 23296 [13]: 1 µg/mL (≈ 1.63 µM)
- MIC E. faecalis 29212 [13]: 1 µg/mL (≈ 1.63 µM)
- MIC T. rubrum 36262 [14]: 8 µg/mL (≈ 13 µM)
- MIC P. mirabilis 23147 [15]: > 256 µg/mL
- MIC P. mirabilis 24231 [15]: 7256 µg/mL (≈ 11800 µM)
- MIC B. fragilis 25285 [19]: 2 µg/mL (≈ 3.25 µM)

SMILES: NC(Cc1ccc(F)cc1)C(=O)NCCCCCCCCCCCCNC(=O)C(N)Cc1ccc(F)cc1 (stereo not drawn) [Compound 19]
- MIC E. floccosum 52062 [1]: 16 µg/mL (≈ 30.1 µM)
- MIC C. albicans 14053 [2]: 32 µg/mL (≈ 60.3 µM)
- MIC P. aeruginosa 27853 [3]: 256 µg/mL (≈ 482 µM)
- MIC S. aureus 29213 [4]: 4 µg/mL (≈ 7.54 µM)
- MIC E. coli 25922 [5]: 16 µg/mL (≈ 30.1 µM)
- MIC M. canis 11621 [7]: 32 µg/mL (≈ 60.3 µM)
- MIC T. mentagrophytes 18748 [10]: 4 µg/mL (≈ 7.54 µM)
- MIC T. rubrum 36262 [14]: 16 µg/mL (≈ 30.1 µM)

SMILES: N=C(N)NC(Cc1ccccc1)C(=O)Nc1ccc(C=Cc2ccc(NC(=O)C(N)Cc3ccccc3)cc2)cc1 (stereo not drawn) [Compound 24, 4-(N-α-amidino-phenylalanyl)-4'-phenylalanyl-diaminostilbene]
- MIC L. fermentum 23271 [17]: 4 µg/mL (≈ 7.32 µM)
- MIC C. albicans 14053 [2]: 256 µg/mL (≈ 468 µM)
- MIC P. aeruginosa 27853 [3]: 32,64 μg/ml
- MIC E. coli 25922 [5]: 16 µg/mL (≈ 29.3 µM)
- MIC C. difficile TTU614 [18]: 16 µg/mL (≈ 29.3 µM)
- MIC B. fragilis 25285 [19]: 8 µg/mL (≈ 14.6 µM)

SMILES: N=C(N)NCCCCCCCCCCCCNC(=N)N [Compound 36, 1,12 [bisguanyl]diaminododecane]
- MIC C. albicans [2]: 32 µg/mL (≈ 112 µM)
- MIC C. albicans 14053 [2]: 4,32 μg/ml
- MIC P aeruginosa [3]: 128 µg/mL (≈ 450 µM)
- MIC P. aeruginosa 27853 [3]: 128 µg/mL (≈ 450 µM)
- MIC S. aureus [4]: 8 µg/mL (≈ 28.1 µM)
- MIC S. aureus 29213 [4]: 8 µg/mL (≈ 28.1 µM)
- MIC E. coli [5]: 32 µg/mL (≈ 112 µM)
- MIC E. coli 25922 [5]: 32 µg/mL (≈ 112 µM)
- MIC C. tropicalis 13803 [8]: 0.5 µg/mL (≈ 1.76 µM)
- MIC C. tropicalis 28707 [8]: ≤ 0.25 µg/mL
- MIC C. parapsilosis 10232 [11]: 0.5 µg/mL (≈ 1.76 µM)
- MIC C. parapsilosis 22109 [11]: 4 µg/mL (≈ 14.1 µM)
- MIC C. kefyr 28838 [12]: 4 µg/mL (≈ 14.1 µM)
